{"source": "paper PMC9475553", "about": "“SHF Acts as a Novel Tumor Suppressor in Glioblastoma Multiforme by Disrupting STAT3 Dimerization” (Advanced Science, 2022)", "key": {"STAT3/DNMT1 interaction": {"test_system": "STAT3/DNMT1 interaction", "assay": "IP assay: endogenous STAT3/DNMT1 interaction in U87 cells", "type": "cell-based, human", "details": "C16 for 2 h, n = 3, p < 0.01", "experimental": "Figure 7 Peptide derived from the STAT3‐binding sites of SHF is an effective GBM suppressive strategy. A) Binding model between SHF and STAT3 using ZDOCK server. […] B) IF staining determined the cell penetrability and nuclear‐localization of C16. U251 cells were incubated with C16 or SC for 2 h and performed IF staining using the indicated antibodies. Bars, 10 µm. C) The statical analysis of adsorption equilibrium assay detecting the binding of C16 and SC with recombinant STAT3. D) Pull‐down assay indicating C16 binds STAT3. GST‐STAT3 was incubated with C16 or SC for 2 h, and the pull‐down assay was performed using Anti‐His magnetic beads. E) IP assay showing the effect of C16 on STAT3 dimerization. 293T cells transfected with indicated vectors were incubated with C16 for 2 h. The relative quantification of STAT3 dimerization was listed. F) IP assay detecting the effect of C16 on the interaction of STAT3 and DNMT1. […] The relative quantification of STAT3/DNMT1 interaction was listed. […] The relative quantification of STAT3/DNMT1 interaction was listed. […] Positive cells were quantified 20 randomly selected fields per mouse (n = 6, Student's t‐test, **p < 0.01). […]\nImmunoprecipitation (IP) experiments were performed to analyze the protein interactions. […] Precipitated products were analyzed by Western blot using the specified antibodies. […]"}, "[1]": {"test_system": "U87 xenograft tumor cell proliferation", "assay": "EdU incorporation in intracranial U87 xenografts", "type": "in vivo, mouse", "details": "10 µg i.p. once every 2 days; EdU 24 h prior to sacrifice; vs SC; n = 6, p < 0.01", "source_text": "Considering that the SH2 domain predominantly represents the inhibition of SHF on STAT3 dimerization and activity, we speculated that this domain may be an optional target for GBM suppression. To this end, we analyzed the mechanical interaction of SHF and STAT3. The structures of human SHF (aa265‐421) and STAT3 (aa130‐715). both of which spanned their respective SH2 domain. were simulated by Swiss‐Model server (https://swissmodel.expasy.org/). To simulate the interaction of SHF and STAT3, Discovery studio 2018 was employed to complete protein‐protein docking using ZDOCK as an initial stage. A rigid body molecular docking algorithm utilizing a fast Fourier transform (FFT) algorithm was used to further improve performance for searching in translational space. […] Next, we determined the implication of C16 in tumor inhibition. […] A concentration of 25 uM was determined to be adequate for use in the subsequent experiments. […]\nFigure 7 Peptide derived from the STAT3‐binding sites of SHF is an effective GBM suppressive strategy. […] B) IF staining determined the cell penetrability and nuclear‐localization of C16. […] The relative quantification of STAT3 dimerization was listed. […] The relative quantification of STAT3/DNMT1 interaction was listed. […] The relative quantification of STAT3/DNMT1 interaction was listed. […]"}}}
{"substance": "C16: peptide spanning SHF amino acids 388–421, palmitic acid at the N-terminus, amidated C-terminus, 3× His tags added to the C-terminal (PFSSVPEIVHHYASRKLPIKGAEHMSLLYPVAIR; palmitic acid at the N-terminus; amidated C-terminus; left off: 3× His tags, C-terminal, kept)", "values": [{"measurement": "endogenous STAT3/DNMT1 interaction", "setting": "STAT3/DNMT1 interaction", "value": "decrease"}, {"measurement": "EdU positive cells in xenografts", "setting": "[1]", "value": "significantly decreased"}]}
